From PubChem BioAssay AID463203 (Broad Institute, 2010)
Calls of active or inactive are those of the source.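 How the source made its calls: active means more than half of replicate measurements showing over 20% loss of kinase signal relative to plate controls; inconclusive means some but at most half of replicates over 20% loss; inactive means no replicate over 20% signal loss.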

These compounds were tested against Glycogen synthase kinase-3 alpha (Homo sapiens) (UniProt P49840) (assay: concentration-response blocking of human GSK3A – biochemical, luminescence, cell-free homogeneous, retest, dose response (AID 463203)). Details: GSK-3 alpha enzyme, ADP-Glo luminescence, 60 min.
Chain of Glycogen synthase kinase-3 alpha (Homo sapiens) (P49840 whole entry, looked up): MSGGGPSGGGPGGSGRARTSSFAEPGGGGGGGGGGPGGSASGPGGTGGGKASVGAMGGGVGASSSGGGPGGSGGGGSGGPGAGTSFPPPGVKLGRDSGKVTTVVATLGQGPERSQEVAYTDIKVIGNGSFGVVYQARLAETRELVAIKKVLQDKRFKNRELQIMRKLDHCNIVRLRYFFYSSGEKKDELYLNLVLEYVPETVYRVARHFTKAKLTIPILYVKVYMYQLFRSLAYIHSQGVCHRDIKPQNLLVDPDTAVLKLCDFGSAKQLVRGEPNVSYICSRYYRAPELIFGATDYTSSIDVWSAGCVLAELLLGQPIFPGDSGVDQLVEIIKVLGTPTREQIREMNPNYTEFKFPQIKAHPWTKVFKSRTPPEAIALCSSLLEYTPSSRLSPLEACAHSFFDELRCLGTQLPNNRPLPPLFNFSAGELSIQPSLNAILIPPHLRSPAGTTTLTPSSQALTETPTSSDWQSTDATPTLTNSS
In the case of `CN(Cc1nc2c(s1)CCCC2)C(=O)CCc1nnc(-c2ccccc2)o1`, the AC50 is reported as > 30 µM (inactive).
`COc1ccc(CCNC2=C(Cl)C(=O)N(Cc3ccccc3)C2=O)cc1OC` was tested, and the AC50 was > 30 µM (inactive).
With `Cc1ccc(N2CC(C(=O)Nc3ncc([N+](=O)[O-])s3)CC2=O)cc1` (configuration not stated) the AC50 was 11.4 µM.
`O=[N+]([O-])c1ccc(NCCCN2CCOCC2)c2ncccc12` was tested, and the AC50 was > 30 µM (inactive).
`O=C(Nc1c(C(=O)O)oc2ccc(Br)cc12)c1ccccc1` was tested, and the AC50 was 3.44 µM.
In the case of `CC1=NN(c2nc(-c3ccc(Cl)cc3)cs2)C(=O)C1`, the AC50 is reported as > 30 µM (inactive).
In the case of `O=S(=O)(c1ccc(Cl)nc1)N1CCN(Cc2ccc3c(c2)OCO3)CC1`, the AC50 is reported as > 30 µM (inactive).
For `CCCCOC(=O)CNc1n[nH]c(=S)[nH]c1=O`, the AC50 was > 30 µM (inactive).
`Cc1ccc(C2C3=C(CCCC3=O)Nc3[nH]c(=S)[nH]c(=O)c32)cc1` (configuration not stated) was tested, and the AC50 was > 30 µM (inactive).
For `CC1CCN(Cc2c(C(=O)N/N=C/c3ccc(C(F)(F)F)cc3)nnn2-c2nonc2N)CC1`, the AC50 was > 30 µM (inactive).
For `CC(C)(C)NC(=O)/C(=C\c1ccccc1F)NC(=O)c1ccc([N+](=O)[O-])cc1`, the AC50 was > 30 µM (inactive).
`CCOC(=O)c1c(NC(=O)C2CC2)sc(C)c1CC` was tested, and the AC50 was > 30 µM (inactive).
For `Cc1cc(NCc2ccco2)n2c(nc3ccccc32)c1C#N`, the AC50 was > 30 µM (inactive).
With `S=C(NCc1ccccc1)NCc1ccc2c(c1)OCO2` the AC50 was 14.2 µM.
`Fc1ccccc1-c1n[nH]c(=S)n1/N=C/c1c[nH]c2ccccc12` gave an AC50 of 22.5 µM.
In the case of `COCCCNc1nc2nonc2nc1NCCSC`, the AC50 is reported as > 30 µM (inactive).
For `CCC(Oc1ccccc1)C(=O)N(C)CC(=O)N(CC(C)C)c1c(N)n(CC(C)C)c(=O)[nH]c1=O` (configuration not stated), the AC50 was > 30 µM (inactive).
In the case of `CC(=NCCCn1ccnc1)c1c(O)n(C2CCCCC2)c(=O)[nH]c1=O`, the AC50 is reported as 6.77 µM.
Work on `CCCCC(=O)Nc1ccc2c(c1)C(=O)NC2=O` yielded an AC50 of 15.6 µM.
Compound `Oc1[nH]c2ccccc2c1N=Nc1ccccc1` has an AC50 of 13.9 µM.
Work on `O=C(NCc1ccccc1)c1ccc2c(=O)[nH]c3c(C(=O)NCC4CCCO4)sc(=S)n3c2c1` (configuration not stated) yielded an AC50 of 14 µM.
`CCOC(=O)c1c(C)c[nH]c1C` was tested, and the AC50 was > 30 µM (inactive).
`N#CCSc1nnc(-c2ccc3c(c2)OCO3)o1` was tested, and the AC50 was 18.1 µM.
Compound `Cc1[nH]nc2c1C(c1ccsc1)C1=C(CC(C)(C)CC1=O)N2` (configuration not stated) has an AC50 of 1.06 µM.
`c1ccc(N2CCN(c3cnc4ccccc4n3)CC2)cc1` was tested, and the AC50 was > 30 µM (inactive).
In the case of `COc1ccc(C(=O)OCC(=O)Nc2c(C)n(C)n(-c3ccccc3)c2=O)cc1`, the AC50 is reported as > 30 µM (inactive).
`CCC(=O)N1CCN(c2cc(NCC3CCCO3)c(F)cc2[N+](=O)[O-])CC1` (configuration not stated) showed an AC50 of 21.7 µM.
In the case of `COc1ccc(/C=C2\Oc3cc(OCC(=O)N4CC(O)C[C@H]4C(=O)O)ccc3C2=O)c(OC)c1OC` (some centres not stated), the AC50 is reported as > 30 µM (inactive).
With `O=C(NCCCN1CCCC1)c1cc2c(Cl)nc3ccccc3c2s1` the AC50 was > 30 µM (inactive).
In the case of `NC(=O)c1cccc(S(=O)(=O)N2CC(c3ccccc3)CC2=O)c1` (configuration not stated), the AC50 is reported as > 30 µM (inactive).
`Cc1ccc(-c2nc3n(n2)Cc2ccccc2-3)cc1` was tested, and the AC50 was > 30 µM (inactive).
For `O=C(NCCCn1ccnc1)C(F)(F)C(F)(F)C(=O)NCCCn1ccnc1`, the AC50 was > 30 µM (inactive).
With `Fc1ccc(Nc2nc(-c3ccncc3)nc3ccccc23)cc1F` the AC50 was > 30 µM (inactive).
In the case of `COc1ccccc1C(=O)O/N=C(\N)c1ccccn1`, the AC50 is reported as > 30 µM (inactive).
For `Cc1cc(NS(=O)(=O)c2ccc(Nc3nc(-c4ccc(O)cc4)cs3)cc2)no1`, the AC50 was 15.3 µM.
`O=C1c2cnc3nc(SCc4ccc(Cl)cc4)nn3c2CC2c3ccccc3CCN12` (configuration not stated) was tested, and the AC50 was > 30 µM (inactive).
For `Oc1cccc(Nc2c3ccccc3nc3ccccc23)c1`, the AC50 was > 30 µM (inactive).
With `COc1ccccc1N1CCN(CCC(=O)Nc2cccc(Cl)c2)CC1` the AC50 was 19.3 µM.
`COc1cccc(-c2c(C(=O)N/N=C/c3ccoc3)nnn2-c2nonc2N)c1` was tested, and the AC50 was 7.92 µM.
For `COc1cccc(Cn2nnc(C(=O)Nc3cc(Cl)ccc3OC)c2N)c1`, the AC50 was > 30 µM (inactive).
With `CC(C)CC(O)C1CCN(C(=O)CCc2nnc(-c3ccc4c(c3)OCO4)o2)CC1` (configuration not stated) the AC50 was > 30 µM (inactive).
With `O=C(NCCCN1CCOCC1)c1ccc(Cl)cc1[N+](=O)[O-]` the AC50 was > 30 µM (inactive).
In the case of `COc1cccc(CCNC(=O)c2cc(COc3c(F)cccc3F)on2)c1`, the AC50 is reported as > 30 µM (inactive).
`COC(=O)c1ccc2c(=O)[nH]c(COC(=O)c3cccc(S(=O)(=O)N4CCOCC4)c3)nc2c1` was tested, and the AC50 was 6.88 µM.
For `Cc1cc2nc(-c3cccnc3SCC(=O)NC3CC3)[nH]c2cc1C`, the AC50 was > 30 µM (inactive).
For `C/C(CC(=O)N(C(C)C)C(C)C)=N\NC(=O)COc1ccc(Cl)cc1Cl`, the AC50 was > 30 µM (inactive).
For `CCn1c(SCC(=O)N/N=C/c2cccs2)nc2ccccc21`, the AC50 was > 30 µM (inactive).
`CS(=O)(=O)N1CCN(c2ccccc2NC(=O)c2ccc(Br)o2)CC1` gave an AC50 of 1.94 µM.
`O=Cc1c(NCCc2cccc(F)c2)c2ccccc2[nH]c1=O` showed an AC50 of 15.2 µM.
In the case of `COc1ccc(OC)c(S(=O)(=O)N2CCN(C(=O)c3cc(C4CC4)nn3-c3ccccc3)CC2)c1`, the AC50 is reported as > 30 µM (inactive).
Compound `N#Cc1c2ccc(O)cc2n2ccccc12` has an AC50 of 3.56 µM.
In the case of `C[C@H](CO)N1C[C@H](C)[C@@H](CN(C)S(=O)(=O)c2ccc(F)cc2)Oc2c(NC(=O)Cc3ccccc3)cccc2C1=O`, the AC50 is reported as > 30 µM (inactive).
`Clc1ccccc1C1=Nn2c(nnc2-c2ccco2)SC1` gave an AC50 of 30.4 µM.
Compound `CC1=C(C(=O)OCc2ccc3c(c2)OCO3)C(c2ccc(F)cc2)NC(=O)N1` (configuration not stated) has an AC50 of 20.3 µM.
In the case of `Cc1cc(OC(=O)c2c(C)cc(OC(=O)c3c(C)cc(O)cc3O)cc2O)cc(O)c1C(=O)O`, the AC50 is reported as > 30 µM (inactive).
In the case of `OCc1nnn(-c2ccccc2)c1CO`, the AC50 is reported as > 30 µM (inactive).
With `COC(=O)c1nnn(-c2ccccc2)c1N` the AC50 was > 30 µM (inactive).
In the case of `COc1ccc(-c2noc(CSc3nc(N)cc(=O)[nH]3)n2)cc1`, the AC50 is reported as > 30 µM (inactive).
For `CCOC(=O)N1CCN(C(=O)CSc2ccc3nnc(-c4ccccn4)n3n2)CC1`, the AC50 was > 30 µM (inactive).
With `COc1ccc(-c2cc(C(F)(F)F)nc(SCC(=O)NCc3ccco3)n2)cc1OC` the AC50 was > 30 µM (inactive).
In the case of `COc1ccc(COC(=O)C2=C(C)NC(=O)NC2c2ccc(OC)c(OC)c2)cc1` (configuration not stated), the AC50 is reported as > 30 µM (inactive).
For `COCCNc1nnc(SCC(=O)NC2CCCCC2)s1`, the AC50 was > 30 µM (inactive).
In the case of `Cc1cccc(C)c1OCC(O)CNC(C)C` (configuration not stated), the AC50 is reported as > 30 µM (inactive).
With `CCc1c(C)c(C#N)c2nc3ccccc3n2c1NC` the AC50 was > 30 µM (inactive).
In the case of `O=S(=O)(Nc1ccc(-c2nnc(SCc3ccc(Cl)cc3)o2)cc1)c1ccccc1`, the AC50 is reported as > 30 µM (inactive).
`Nc1nc(NCCc2ccccc2)nc(NCc2ccccc2)c1[N+](=O)[O-]` showed an AC50 of 1.66 µM.
`CCOC(=O)c1c(NC(=S)N2CCOCC2)sc2c1CCN(C(=O)OCC)C2` was tested, and the AC50 was > 30 µM (inactive).
In the case of `CCN1CCN(c2nc(Nc3cccc(OC)c3)nc(N)c2[N+](=O)[O-])CC1`, the AC50 is reported as > 30 µM (inactive).
With `COc1cc2c(cc1OC)-c1c3c(cc4c1[C@@H](C2)N(C)CC4)OCO3` the AC50 was 24.9 µM.
In the case of `O=C(NCCCN1CCOCC1)c1ccc(Cl)c([N+](=O)[O-])c1`, the AC50 is reported as > 30 µM (inactive).
With `CCOC(=O)c1c(Cc2ccccc2)c[nH]c1C` the AC50 was > 30 µM (inactive).
`COc1ccccc1-c1noc(CSc2nc(N)cc(=O)[nH]2)n1` was tested, and the AC50 was > 30 µM (inactive).
`CCc1cc(C(=O)OC)c(NC(=O)CN2CCN(C(=O)c3ccco3)CC2)s1` was tested, and the AC50 was > 30 µM (inactive).
Compound `N#C/C(C(N)=O)=C1/CCc2ccccc2N1` has an AC50 of 12.5 µM.
For `N#C/C(=N\Nc1ccccc1)C(N)=S`, the AC50 was > 30 µM (inactive).
With `Cc1ccc(-c2c3c(=O)n(C)c(=O)n(C)c3cn2Cc2ccccn2)cc1` the AC50 was > 30 µM (inactive).
In the case of `COc1ccc(-c2cn3cccnc3n2)cc1NC(=O)C1CCCC1`, the AC50 is reported as > 30 µM (inactive).
With `Cc1cc(C(=O)CN(Cc2ccc(F)cc2)S(=O)(=O)c2ccc3c(c2)OCCO3)c(C)n1C` the AC50 was > 30 µM (inactive).
In the case of `Cc1cccc(-c2c3c(=O)n(C)c(=O)n(C)c3c3cccnn23)c1`, the AC50 is reported as > 30 µM (inactive).
For `COc1ccc(CNc2ccc3cn[nH]c3c2)c(OC)c1OC`, the AC50 was 19.8 µM.
With `Cc1cc(C)c(S(=O)(=O)Nc2ccnc(-c3cccnc3)n2)c(C)c1` the AC50 was 5.52 µM.
In the case of `CN(c1ccccc1)c1nc(N)c([N+](=O)[O-])c(Nc2ccccc2F)n1`, the AC50 is reported as > 30 µM (inactive).
`CC(C)N=C(NC#N)SCc1ccc(Br)cc1` was tested, and the AC50 was > 30 µM (inactive).
`CC(C)(C)C(=O)/C=c1\[nH]c(=O)/c(=C\c2ccc(F)cc2)s1` showed an AC50 of 11.9 µM.
`CCC(=NCCO)c1c(O)n(C2CCCCC2)c(=O)[nH]c1=O` gave an AC50 of 19.4 µM.
For `CCn1c(=O)[nH]c(=O)c2c(N)c(C(=O)c3cc(F)ccc3F)sc21`, the AC50 was 10.4 µM.
`COc1ccc(OC)c(/C=C2\Oc3cc(OCC(=O)N4CCC[C@H]4C(=O)O)ccc3C2=O)c1` was tested, and the AC50 was > 30 µM (inactive).
In the case of `Cc1cnc(NC(=O)C2COc3ccccc3O2)s1` (configuration not stated), the AC50 is reported as 19.2 µM.
`O=C(COC(=O)C1CCC1)c1c[nH]c2ccccc12` was tested, and the AC50 was > 30 µM (inactive).
With `COc1ccc(OCC(=O)N2CCN(c3nnc(-c4ccc(C)cc4)c4ccccc34)CC2)cc1` the AC50 was > 30 µM (inactive).
With `CC(=O)Nc1ccc(C(=O)OCC(=O)Nc2c(C)n(C)n(-c3ccccc3)c2=O)cc1` the AC50 was > 30 µM (inactive).
With `O=C1CCCC2=C1C(c1cccc(O)c1)c1c(ccc3ncccc13)N2` (configuration not stated) the AC50 was > 30 µM (inactive).
With `CCN1CCN(CC(=O)Nc2nc3ccc(OC)cc3s2)CC1` the AC50 was > 30 µM (inactive).
With `CCOc1ccc(S(=O)(=O)c2c(C(=O)c3ccc(C)cc3)cnc3cc4c(cc23)OCCO4)cc1` the AC50 was > 30 µM (inactive).
`O=c1[nH]nnc2c1sc1nc(N3CCOCC3)c3c(c12)CCCC3` was tested, and the AC50 was 13.4 µM.
With `CCOC(=O)CSc1nc(N)c(C#N)c(-c2cccs2)c1C#N` the AC50 was > 30 µM (inactive).
With `Cc1ccc(C(=O)N/C(=C\c2ccc(-c3ccc(Cl)cc3)o2)C(=O)NCCCN(C)C)cc1` the AC50 was > 30 µM (inactive).
`O=[N+]([O-])c1cc(C(F)(F)F)ccc1NCCCN1CCOCC1` was tested, and the AC50 was > 30 µM (inactive).
`O=C(CCN1CCOCC1)Nc1cccc(Br)c1` was tested, and the AC50 was > 30 µM (inactive).
`COC(=O)[C@H]1[C@H](CCc2ccccc2)NC(=O)N(Cc2ccccc2)[C@@H]1C` was tested, and the AC50 was > 30 µM (inactive).
In the case of `CC(Oc1ccc(Br)cc1)C(=O)N1CCC(C(N)=O)CC1` (configuration not stated), the AC50 is reported as > 30 µM (inactive).
For `Cc1cc2[nH]c(=S)[nH]c2cc1C`, the AC50 was > 30 µM (inactive).
